Source: patent US20260199270A1, “METHODS FOR TREATING NEURODEGENERATIVE DISORDERS WITH TRAMIPROSATE” (Alzheon, Inc., priority 2022, published 2026)
“Also recorded” adds a separate entry of the source.

What was measured:
Format in all cases: in vivo, human
plasma Aβ42 = experiment: Phase 2 trial of ALZ-801 in early Alzheimer's disease: plasma Aβ42; conditions: 52 weeks; 265 mg ALZ-801 orally twice daily; APOE4+ early AD subjects
Description: FIG. 2 illustrates the effect on plasma Abeta42 (change from baseline) following a 52 week treatment with 265 mg ALZ-801 administered orally twice daily to subjects who are APOE4+ and have early AD.
(§1) Evaluation of disease modifying effects from phase 2 trial of ALZ-801 (valiltramiprosate) in subjects with early Alzheimer's disease were conducted. The study enrolled 84 patients, with early AD, who carry the APOE4/4 or APOE3/4 genotype and have an MMSE score ranging from 22 to 30 (CDR-G 0.5 or 1). Each patient received 265 mg ALZ-801 twice daily. The average MMSE score of the subjects was 26 (mean age 69 years, 52% female). Subjects were either amyloid PET positive or A+/T+ on CSF assays. CSF criteria were: Ratio of Aβ42/40×10<0.61, and p-tau181>61 pg/ml. CSF was evaluated at 52 weeks, and plasma biomarkers at every visit.
(§2) These effects were associated with benefits on a composite cognitive outcome that tests memory and learning. […] The HV preservation effects correlate with cognitive benefits (Spearman's coefficient r=0.27, p=0.02).

plasma Aβ40 = experiment: Phase 2 trial of ALZ-801 in early Alzheimer's disease: plasma Aβ40; conditions: 52 weeks; 265 mg ALZ-801 orally twice daily; APOE4+ early AD subjects
Description: FIG. 1 illustrates the effect on plasma Abeta40 (change from baseline) following a 52 week treatment with 265 mg ALZ-801 administered orally twice daily to subjects who are APOE4+ and have early AD.
as §1, §2

[1] = Phase 2 trial of ALZ-801: HV atrophy vs matched external control group from ADNI-1; conditions: compared to matched external control group from the ADNI-1 observational study; 265 mg twice daily
Description: as §1, §2

plasma p-tau181 = experiment: Phase 2 trial of ALZ-801 in early Alzheimer's disease: plasma p-tau181; conditions: 52 weeks; 265 mg ALZ-801 orally twice daily; APOE4+ early AD subjects
Description: FIG. 3 illustrates the effect on plasma p-tau181 (change from baseline) following a 52 week treatment with 265 mg ALZ-801 administered orally twice daily to subjects who are APOE4+ and have early AD.
as §1, §2

[2] = Phase 2 trial of ALZ-801: safety, ARIA and macrohemorrhages; conditions: 1 year of ALZ-801 treatment
Description: This is further supported by the early significant decrease in the neuronal injury marker plasma p-tau, which indicates decreased amyloid-induced neuronal stress. See e.g., FIG. 3.
as §1, with “visit. […]” for “visit.”

What does the source list for `CC(C)[C@H](N)C(=O)NCCCS(=O)(=O)O` [ALZ-801, valyl-3-amino-1-propanesulfonic acid]?
reduction of plasma Aβ42 compared to baseline (plasma Aβ42): ~ 5%; reduction of plasma Aβ40 compared to baseline (plasma Aβ40): ~ 5%; reduction of HV atrophy [1]: 19-23%; reduction of plasma p-tau compared to baseline (plasma p-tau181): 41%; events of vasogenic edema / amyloid-related imaging abnormalities (ARIA-E; b52: ARIA-E or ARIA-H) [2]: no events; macrohemorrhages (bleeds larger than 1 cm in diameter) [2]: no events; also recorded: no macro-hemorrhages
